Reference: ChEMBL document CHEMBL1201862, “PubChem BioAssay data set” (2004)
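Protocol summary: plate cells (96-well), add compound at 5 concentrations, incubate 48 h, interpolate endpoints linearly. The concentration for 50% growth inhibition is given as GI50.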 Active and inactive are the calls of the source. Rule as the data show it: active = GI50 up to about 1.1 µM and inactive = higher.

Assays:
Assay in all cases: NCI-60 cell line screen, 48 h
[1] = system: NCI-H226
[2] = system: SF-539
[3] = system: HCT-15
[4] = system: HOP-92
[5] = system: SW-620
[6] = system: HCT-116
[7] = system: OVCAR-5
[8] = system: NCI-H522
[9] = system: SR
[10] = system: RPMI-8226
[11] = system: CCRF-CEM
[12] = system: MOLT-4
[13] = system: SNB-19
[14] = system: U-251
[15] = system: OVCAR-8
[16] = system: M14
[17] = system: ACHN
[18] = system: MDA-MB-435
[19] = system: NCI/ADR-RES

Structure (SMILES) | GI50 [1] | GI50 [2] | GI50 [3] [µM] | GI50 [4] | GI50 [5] | GI50 [6] | GI50 [7] | GI50 [8] | GI50 [9] | GI50 [10] | GI50 [11] | GI50 [12] | GI50 [13] | GI50 [14] | GI50 [15] | GI50 [16] | GI50 [17] | GI50 [18] | GI50 [19]
CC(=O)C1(O)CC2(c3ccccc3)C(=O)C1(c1ccccc1)C(c1ccccc1)=C2c1ccccc1 (stereo not given) | > 100 µM (inactive) | > 100 µM (inactive) | > 100 | 80.9 µM (inactive) | > 100 µM (inactive) | 30.9 µM (inactive) | 49.1 µM (inactive) | 66.8 µM (inactive) | 85.1 µM (inactive) | 16.5 µM (inactive) | > 100 µM (inactive) | 39.6 µM (inactive) | > 100 µM (inactive) | 81.3 µM (inactive) | > 100 µM (inactive) | > 100 µM (inactive) |  |  | 
CC1=CC(=O)N2C(OC[C@@H]2c2ccccc2)O1 (stereo not given in full) | > 100 µM (inactive) | > 100 µM (inactive) | > 100 | > 100 µM (inactive) | > 100 µM (inactive) | > 100 µM (inactive) |  | > 100 µM (inactive) | > 100 µM (inactive) | > 100 µM (inactive) | > 100 µM (inactive) | > 100 µM (inactive) | > 100 µM (inactive) | > 100 µM (inactive) | > 100 µM (inactive) | > 100 µM (inactive) | > 100 µM (inactive) |  | 
O=c1[nH]c(=O)n(CCOc2ccccc2)cc1Nc1ccccc1 |  |  | > 100 | 6.32 µM (inactive) | > 100 µM (inactive) | > 100 µM (inactive) | > 100 µM (inactive) | 6.11 µM (inactive) | > 100 µM (inactive) | > 100 µM (inactive) | > 100 µM (inactive) | > 100 µM (inactive) | > 100 µM (inactive) | > 100 µM (inactive) |  | > 100 µM (inactive) | 92.7 µM (inactive) | > 100 µM (inactive) | > 100 µM (inactive)
CC(C)(C)C(=C[S+]([O-])/N=C/c1ccccc1)C(C)(C)C (stereo not given) | 20.7 µM (inactive) | > 100 µM (inactive) | 23 | 19.7 µM (inactive) | 50 µM (inactive) | 30.4 µM (inactive) | 48.6 µM (inactive) | 23 µM (inactive) | 24.7 µM (inactive) | 20.8 µM (inactive) | 17.8 µM (inactive) | 14 µM (inactive) | 44.7 µM (inactive) | 25.1 µM (inactive) | 59.4 µM (inactive) | 40.2 µM (inactive) | 36.8 µM (inactive) |  | 
CC(C)OP(=O)(OC(C)C)/C(=N/Nc1ccc([N+](=O)[O-])cc1)Nc1ccccc1 | 16.4 µM (inactive) | 33.9 µM (inactive) | 32.4 | 17.5 µM (inactive) | 33 µM (inactive) | 16.4 µM (inactive) | > 100 µM (inactive) | 17.9 µM (inactive) | 16.6 µM (inactive) | 20.3 µM (inactive) | 18.4 µM (inactive) | 10.7 µM (inactive) | 36.7 µM (inactive) | 21.2 µM (inactive) | 34.8 µM (inactive) | 20.2 µM (inactive) | 24.8 µM (inactive) |  | 
O=S1(=O)OCCOS(=O)(=O)C1(Br)Cc1ccccc1 | > 100 µM (inactive) | > 100 µM (inactive) | > 100 | > 100 µM (inactive) | > 100 µM (inactive) | > 100 µM (inactive) | > 100 µM (inactive) | > 100 µM (inactive) | > 100 µM (inactive) | > 100 µM (inactive) | > 100 µM (inactive) | > 100 µM (inactive) | > 100 µM (inactive) | > 100 µM (inactive) | > 100 µM (inactive) | > 100 µM (inactive) | > 100 µM (inactive) |  | 
COc1ccc(-c2cc(=O)c3cc(O)ccc3o2)c(OC)c1OC | 41.6 µM (inactive) | 68.5 µM (inactive) | 31.8 | 32.4 µM (inactive) | 40.8 µM (inactive) | 26.5 µM (inactive) | 20.2 µM (inactive) | 18.2 µM (inactive) | 12.7 µM (inactive) | 12.9 µM (inactive) | 4.73 µM (inactive) |  | 47.4 µM (inactive) |  |  | 37.9 µM (inactive) | 19.5 µM (inactive) |  | 
O=C(NNCc1ccc(Cl)cc1)Nc1cccc2ccccc12 | > 100 µM (inactive) | 47.4 µM (inactive) | > 100 | 29.3 µM (inactive) | > 100 µM (inactive) | 63 µM (inactive) | 94.6 µM (inactive) | 27.3 µM (inactive) | > 100 µM (inactive) | 16.4 µM (inactive) | > 100 µM (inactive) | 29.4 µM (inactive) | > 100 µM (inactive) | 58.5 µM (inactive) | > 100 µM (inactive) | > 100 µM (inactive) | 45 µM (inactive) | 52.6 µM (inactive) | > 100 µM (inactive)
COC[C@@H](/N=C/c1ccc(OC)cc1)C(C)C |  |  | > 100 |  | > 100 µM (inactive) | > 100 µM (inactive) | > 100 µM (inactive) | > 100 µM (inactive) | > 100 µM (inactive) | > 100 µM (inactive) | > 100 µM (inactive) | > 100 µM (inactive) |  | > 100 µM (inactive) | > 100 µM (inactive) | > 100 µM (inactive) | > 100 µM (inactive) | > 100 µM (inactive) | > 100 µM (inactive)
CN1CCCCC(C(O)(c2ccccc2)c2ccccc2)C1=O (stereo not given) | > 100 µM (inactive) | > 100 µM (inactive) | 16.3 | > 100 µM (inactive) | 11.9 µM (inactive) | 24.8 µM (inactive) | > 100 µM (inactive) | > 100 µM (inactive) | > 100 µM (inactive) | 24.1 µM (inactive) | 85.5 µM (inactive) | > 100 µM (inactive) | > 100 µM (inactive) | > 100 µM (inactive) | > 100 µM (inactive) | > 100 µM (inactive) | > 100 µM (inactive) |  | 
CC(CC=O)Nc1nn2c(=O)c3ccccc3nc2s1 (stereo not given) | > 100 µM (inactive) | > 100 µM (inactive) | > 100 | > 100 µM (inactive) | > 100 µM (inactive) | > 100 µM (inactive) | > 100 µM (inactive) | > 100 µM (inactive) | > 100 µM (inactive) | > 100 µM (inactive) | > 100 µM (inactive) | > 100 µM (inactive) | > 100 µM (inactive) | > 100 µM (inactive) | > 100 µM (inactive) | > 100 µM (inactive) | > 100 µM (inactive) | > 100 µM (inactive) | > 100 µM (inactive)
CC(C)c1cc(C(C)C)c(S(=O)(=O)N=[N+]=[N-])c(C(C)C)c1 | > 100 µM (inactive) | > 100 µM (inactive) | > 100 | > 100 µM (inactive) | > 100 µM (inactive) | > 100 µM (inactive) | > 100 µM (inactive) | > 100 µM (inactive) | 31.6 µM (inactive) | 18.7 µM (inactive) | 34.9 µM (inactive) | 21.3 µM (inactive) | > 100 µM (inactive) | 44 µM (inactive) | > 100 µM (inactive) | > 100 µM (inactive) | > 100 µM (inactive) |  | 
